Experimental findings from ChEMBL document CHEMBL5252564, “It's ok to be outnumbered - sub-stoichiometric modulation of homomeric protein complexes” (RSC Med Chem, 2023) are described below.

Structures are written as SMILES. Peptide text beside a SMILES is read from it. * marks the point of attachment. X1 = CC(C)[C@H](N*)B(O)O

Assay [1] addresses T1, ATP-dependent Clp protease proteolytic subunit (Staphylococcus aureus (strain NCTC 8325)) (UniProt Q2G036).
T1 sequence (whole entry): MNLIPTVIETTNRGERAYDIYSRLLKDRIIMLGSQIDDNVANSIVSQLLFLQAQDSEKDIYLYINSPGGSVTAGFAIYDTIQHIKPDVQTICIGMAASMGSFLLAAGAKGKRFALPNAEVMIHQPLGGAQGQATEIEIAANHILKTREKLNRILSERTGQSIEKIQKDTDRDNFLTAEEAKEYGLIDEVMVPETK
Nature of the assay: Inhibition of Staphylococcus aureus ClpP assessed as active site modification at 1 uM treated for 1 hr by mass spectrometry analysis relative to control.

The target of assay [2] is Programmed cell death 1 ligand 1 (Homo sapiens) (UniProt Q9NZQ7).
Sequence of Programmed cell death 1 ligand 1 (Homo sapiens) (Q9NZQ7 whole entry): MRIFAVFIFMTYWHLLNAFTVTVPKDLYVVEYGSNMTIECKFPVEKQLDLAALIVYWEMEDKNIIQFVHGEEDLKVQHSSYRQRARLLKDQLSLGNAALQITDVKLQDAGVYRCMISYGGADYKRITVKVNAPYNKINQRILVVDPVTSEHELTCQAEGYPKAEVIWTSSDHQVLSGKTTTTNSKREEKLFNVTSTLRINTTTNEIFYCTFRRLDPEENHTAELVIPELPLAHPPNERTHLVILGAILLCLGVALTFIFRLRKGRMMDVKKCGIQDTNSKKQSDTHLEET
Description: Binding affinity to human PD-L1 (18 to 134 residues) expressed in Escherichia coli BL21(DE3) assessed as thermal stabilization by measuring melting temperature by DSF assay
Assay [3] is described as follows: Binding affinity to Escherichia coli DegP using SPMFKGV-pNA as substrate at activated state by isothermal titration calorimetry. A general note: ITC needs no label: the signal is the heat of the interaction.
The nature of assay [4]: Binding affinity to Escherichia coli DegP using SPMFKGV-pNA as substrate at resting state by isothermal titration calorimetry.

As a reminder, the inhibition is how much of the control response was suppressed. With `C#CCCC[C@H]1OC(=O)[C@@H]1c1ccc(OC)cc1`, the inhibition in assay [1] was 35%.

The term ΔTm denotes the shift of the melting midpoint relative to a reference. On to `COc1nc(OCc2cccc(-c3ccccc3)c2C)ccc1CNCCNC(C)=O`, for which the thermal shift (ΔTm) in assay [2] is 13 °C.

For the compound `C#Cc1ccc(C(=O)C2CN(C(=O)CCCCCCCCC=C)S2(=O)=O)cc1` (stereo not given), the inhibition in assay [1] is 63%.

Broadly, the Kd is the equilibrium constant for the complex coming apart. Lower therefore signals tighter binding. With `CSCC[C@H](NC(=O)[C@@H]1CCCN1C(=O)[C@@H](N)CC(=O)O)C(=O)N[C@@H](Cc1ccccc1)C(=O)N[C@@H](CCCCN)C(=O)N[C@@H](CC(C)C)C(=O)N[C@H](B(O)O)C(C)C` (H-DPMFKL-X1), the dissociation constant Kd stood at 0.033 µM in assay [3] and 6 µM in assay [4].
